Assay results published in patent publication US4999354A, “Imidazoquinoxaline compounds and their preparation and use” (A/S Ferrosan, priority 1987, dated 1991).

System: benzodiazepine receptors
Assay: in vivo displacement of 3H-flunitrazepam from brain benzodiazepine receptors in mice
Design: species or system mice (female, NMR)
Conditions: test substance intraperitoneally 15 min before 3H-FNM i.v., forebrains taken 20 min after 3H-FNM
Procedure: The ED50 value represents the dose (mg/kg) of a test substance which causes the specific binding of flunitrazepam to benzodiazepine receptors in a living brain to be reduced to 50% of the control value.
Such an in vivo test is carried out as follows:
Results. The ED50 value is determined from dose response curves.

CC(C)n1c(=O)c2c(-c3nc(C4CC4)no3)ncn2c2ccccc21 [Compound 6, 3-(3-cyclopropyl-1,2,4-oxadiazol-5-yl)-4,5-dihydro-5-isopropyl-4-oxo-imidazo[1,5-a] quinoxaline]
ED50 (dose that inhibits 50% of specific 3H-flunitrazepam binding to brain benzodiazepine receptors): 0.28 mg/kg
